According to ChEMBL document CHEMBL4002566, “S-substituted 3,5-dinitrophenyl 1,3,4-oxadiazole-2-thiols and tetrazole-5-thiols as highly efficient antitubercular agents” (Eur J Med Chem, 2017):

Assays:
Mycobacterium avium [1] = test: Antimycobacterial activity against Mycobacterium avium CNCTC My 330/88 after 21 days by micromethod; format: functional; details: CNCTC My 330/88, 504 h
[2] = test system: Mycobacterium tuberculosis; test: Antimycobacterial activity against Mycobacterium tuberculosis CNCTC My 331/88 after 14 days by micromethod; format: functional; details: CNCTC My 331/88, 336 h
Mycobacterium avium [3] = test: Antimycobacterial activity against Mycobacterium avium CNCTC My 330/88 after 14 days by micromethod; format: functional; details: CNCTC My 330/88, 336 h
Mycobacterium kansasii [4] = test: Antimycobacterial activity against Mycobacterium kansasii CNCTC My 235/80 after 14 days by micromethod; format: functional; details: CNCTC My 235/80, 336 h
Mycobacterium kansasii [5] = test: Antimycobacterial activity against Mycobacterium kansasii 6509/96 clinical isolate after 14 days by micromethod; format: functional; details: 6509/96, 336 h
Candida albicans [6] = test: Antifungal activity against Candida albicans ATCC 44859 after 24 hrs by broth microdilution method; format: functional; details: ATCC 44859, 24 h
Candida albicans [7] = test: Antifungal activity against Candida albicans ATCC 44859 after 48 hrs by broth microdilution method; format: functional; details: ATCC 44859, 48 h
Candida tropicalis [8] = test: Antifungal activity against Candida tropicalis 156 after 24 hrs by broth microdilution method; format: functional; details: Candida tropicalis, 156, 24 h
Candida tropicalis [9] = test: Antifungal activity against Candida tropicalis 156 after 48 hrs by broth microdilution method; format: functional; details: Candida tropicalis, 156, 48 h
Pichia kudriavzevii [10] = test: Antifungal activity against Candida krusei E28 after 24 hrs by broth microdilution method; format: functional; details: E28, 24 h
Pichia kudriavzevii [11] = test: Antifungal activity against Candida krusei E28 after 48 hrs by broth microdilution method; format: functional; details: E28, 48 h
Nakaseomyces glabratus [12] = test: Antifungal activity against Candida glabrata 20/I after 24 hrs by broth microdilution method; format: functional
Nakaseomyces glabratus [13] = test: Antifungal activity against Candida glabrata 20/I after 48 hrs by broth microdilution method; format: functional
Trichosporon asahii [14] = test: Antifungal activity against Trichosporon asahii 1188 after 24 hrs by broth microdilution method; format: functional; details: Trichosporon asahii, 1188, 24 h
Trichosporon asahii [15] = test: Antifungal activity against Trichosporon asahii 1188 after 48 hrs by broth microdilution method; format: functional; details: Trichosporon asahii, 1188, 48 h
Aspergillus fumigatus [16] = test: Antifungal activity against Aspergillus fumigatus 231 after 24 hrs by broth microdilution method; format: functional; details: Aspergillus fumigatus, 231, 24 h
Aspergillus fumigatus [17] = test: Antifungal activity against Aspergillus fumigatus 231 after 48 hrs by broth microdilution method; format: functional; details: Aspergillus fumigatus, 231, 48 h
Lichtheimia corymbifera [18] = test: Antifungal activity against Absidia corymbifera 272 after 24 hrs by broth microdilution method; format: functional; details: Lichtheimia corymbifera, 272, 24 h
Lichtheimia corymbifera [19] = test: Antifungal activity against Absidia corymbifera 272 after 48 hrs by broth microdilution method; format: functional; details: Lichtheimia corymbifera, 272, 48 h
[20] = test system: Trichophyton mentagrophytes; test: Antifungal activity against Trichophyton mentagrophytes 445 after 72 hrs by broth microdilution method; format: functional; details: Trichophyton mentagrophytes, 445, 72 h
[21] = test system: Trichophyton mentagrophytes; test: Antifungal activity against Trichophyton mentagrophytes 445 after 120 hrs by broth microdilution method; format: functional; details: Trichophyton mentagrophytes, 445, 120 h
Staphylococcus aureus [22] = test: Antibacterial activity against Staphylococcus aureus ATCC 6538 after 24 hrs by broth microdilution method; format: functional; details: ATCC 6538, 24 h
Staphylococcus aureus [23] = test: Antibacterial activity against Staphylococcus aureus ATCC 6538 after 48 hrs by broth microdilution method; format: functional; details: ATCC 6538, 48 h
Staphylococcus aureus [24] = test: Antibacterial activity against methicillin-resistant Staphylococcus aureus HK5996/08 after 24 hrs by broth microdilution method; format: functional; details: HK5996/08, 24 h
Staphylococcus aureus [25] = test: Antibacterial activity against methicillin-resistant Staphylococcus aureus HK5996/08 after 48 hrs by broth microdilution method; format: functional; details: HK5996/08, 48 h
[26] = test system: Staphylococcus epidermidis; test: Antibacterial activity against Staphylococcus epidermidis HK6996/08 after 24 hrs by broth microdilution method; format: functional; details: HK6996/08, 24 h
[27] = test system: Staphylococcus epidermidis; test: Antibacterial activity against Staphylococcus epidermidis HK6996/08 after 48 hrs by broth microdilution method; format: functional; details: HK6996/08, 48 h
Enterococcus sp. [28] = test: Antibacterial activity against Enterococcus sp. HK14365/08 after 24 hrs by broth microdilution method; format: functional; details: HK14365/08, 24 h
Enterococcus sp. [29] = test: Antibacterial activity against Enterococcus sp. HK14365/08 after 48 hrs by broth microdilution method; format: functional; details: HK14365/08, 48 h
Escherichia coli [30] = test: Antibacterial activity against Escherichia coli ATCC 8739 after 24 hrs by broth microdilution method; format: functional; details: ATCC 8739, 24 h
Escherichia coli [31] = test: Antibacterial activity against Escherichia coli ATCC 8739 after 48 hrs by broth microdilution method; format: functional; details: ATCC 8739, 48 h
Klebsiella pneumoniae [32] = test: Antibacterial activity against Klebsiella pneumoniae HK11750/08 after 24 hrs by broth microdilution method; format: functional; details: HK11750/08, 24 h
Klebsiella pneumoniae [33] = test: Antibacterial activity against Klebsiella pneumoniae HK11750/08 after 48 hrs by broth microdilution method; format: functional; details: HK11750/08, 48 h
Klebsiella pneumoniae [34] = test: Antibacterial activity against extended spectrum beta-lactamase producing Klebsiella pneumoniae HK14368/08 after 24 hrs by broth microdilution method; format: functional; details: HK14368/08, 24 h
Klebsiella pneumoniae [35] = test: Antibacterial activity against extended spectrum beta-lactamase producing Klebsiella pneumoniae HK14368/08 after 48 hrs by broth microdilution method; format: functional; details: HK14368/08, 48 h
Pseudomonas aeruginosa [36] = test: Antibacterial activity against Pseudomonas aeruginosa ATCC 9027 after 24 hrs by broth microdilution method; format: functional; details: ATCC 9027, 24 h
Pseudomonas aeruginosa [37] = test: Antibacterial activity against Pseudomonas aeruginosa ATCC 9027 after 48 hrs by broth microdilution method; format: functional; details: ATCC 9027, 48 h
[38] = Cytotoxicity against human HuH7 cells assessed as cell viability at 30 uM after 48 hrs by MTS assay relative to control; format: cell-based, Huh-7; details: read-out: Activity
Huh-7 = test: Cytotoxicity against human HuH7 cells assessed as cell viability after 48 hrs by MTS assay; format: cell-based; details: Huh-7, 48 h
A-431 = test: Cytotoxicity against human A431 cells assessed as cell viability after 48 hrs by MTS assay; format: cell-based; details: A-431, 48 h
[39] = Cytotoxicity against human A431 cells assessed as cell viability at 30 uM after 48 hrs by MTS assay relative to control; format: cell-based, A-431; details: read-out: Activity
MDCK = test: Cytotoxicity against MDCK cells assessed as cell viability after 48 hrs by MTS assay; format: cell-based; details: Canis lupus familiaris
[40] = Cytotoxicity against MDCK cells assessed as cell viability at 30 uM after 48 hrs by MTS assay relative to control; format: cell-based, Canis lupus familiaris; details: dog, read-out: Activity
HepG2 = test: Cytotoxicity against human HepG2 cells assessed as cell viability after 48 hrs by MTS assay; format: cell-based; details: HepG2, 48 h
[41] = Cytotoxicity against human HepG2 cells assessed as cell viability at 30 uM after 48 hrs by MTS assay relative to control; format: cell-based; details: read-out: Activity
[42] = Selectivity index, ratio of IC50 for human HepG2 cells to MIC for Mycobacterium tuberculosis; format: toxicity; details: read-out: Selectivity Index
[43] = test system: Mycobacterium tuberculosis; test: Antimycobacterial activity against Mycobacterium tuberculosis CNCTC My 331/88 after 21 days by micromethod; format: functional; details: CNCTC My 331/88, 504 h
Mycobacterium kansasii [44] = test: Antimycobacterial activity against Mycobacterium kansasii CNCTC My 235/80 after 21 days by micromethod; format: functional; details: CNCTC My 235/80, 504 h
Mycobacterium kansasii [45] = test: Antimycobacterial activity against Mycobacterium kansasii CNCTC My 235/80 after 7 days by micromethod; format: functional; details: CNCTC My 235/80, 168 h
Mycobacterium kansasii [46] = test: Antimycobacterial activity against Mycobacterium kansasii 6509/96 clinical isolate after 21 days by micromethod; format: functional; details: 6509/96, 504 h
Mycobacterium kansasii [47] = test: Antimycobacterial activity against Mycobacterium kansasii 6509/96 clinical isolate after 7 days by micromethod; format: functional; details: 6509/96, 168 h

O=[N+]([O-])c1cc(-n2nnnc2SCc2ccc(Cl)c(Cl)c2)cc([N+](=O)[O-])c1
125 µM: MIC (Staphylococcus aureus [24]) | MIC (Staphylococcus aureus [25])
> 500 µM: MIC (Candida albicans [6]) | MIC (Candida albicans [7]) | MIC (Candida tropicalis [8]) | MIC (Candida tropicalis [9]) | MIC (Pichia kudriavzevii [10]) | MIC (Pichia kudriavzevii [11]) | MIC (Nakaseomyces glabratus [12]) | MIC (Nakaseomyces glabratus [13]) | MIC (Trichosporon asahii [14]) | MIC (Trichosporon asahii [15]) | MIC (Aspergillus fumigatus [16]) | MIC (Aspergillus fumigatus [17]) | MIC (Lichtheimia corymbifera [18]) | MIC (Lichtheimia corymbifera [19]) | MIC [20] | MIC [21] | MIC (Enterococcus sp. [28]) | MIC (Enterococcus sp. [29]) | MIC (Escherichia coli [30]) | MIC (Escherichia coli [31]) | MIC (Klebsiella pneumoniae [32]) | MIC (Klebsiella pneumoniae [33]) | MIC (Klebsiella pneumoniae [34]) | MIC (Klebsiella pneumoniae [35]) | MIC (Pseudomonas aeruginosa [36]) | MIC (Pseudomonas aeruginosa [37])
32 µM: MIC (Mycobacterium avium [1])
84%: viability at 48 h, 30 µM [40]
> 120: selectivity ratio [42]
137%: viability at 48 h, 30 µM [38]
145%: viability at 48 h, 30 µM [41]
90%: viability at 48 h, 30 µM [39]
1 µM: MIC (Mycobacterium kansasii [4]) | MIC (Mycobacterium kansasii [44]) | MIC (Mycobacterium kansasii [46])
62 µM: MIC (Staphylococcus aureus [22]) | MIC (Staphylococcus aureus [23])
250 µM: MIC [26] | MIC [27]
8 µM: MIC (Mycobacterium avium [3])
0.5 µM: MIC (Mycobacterium kansasii [5]) | MIC (Mycobacterium kansasii [45])
> 30 µM: IC50 (Huh-7) | IC50 (A-431) | IC50 (MDCK) | IC50 (HepG2)
0.25 µM: MIC [2] | MIC [43] | MIC (Mycobacterium kansasii [47])

O=[N+]([O-])c1cc(-c2nnc(SCc3ccc(Cl)cc3)o2)cc([N+](=O)[O-])c1
> 125 µM: MIC (Candida albicans [6]) | MIC (Candida albicans [7]) | MIC (Candida tropicalis [8]) | MIC (Candida tropicalis [9]) | MIC (Pichia kudriavzevii [10]) | MIC (Pichia kudriavzevii [11]) | MIC (Nakaseomyces glabratus [12]) | MIC (Nakaseomyces glabratus [13]) | MIC (Trichosporon asahii [14]) | MIC (Trichosporon asahii [15]) | MIC (Aspergillus fumigatus [16]) | MIC (Aspergillus fumigatus [17]) | MIC (Lichtheimia corymbifera [18]) | MIC (Lichtheimia corymbifera [19]) | MIC [20] | MIC [21]
> 30 µM: IC50 (Huh-7) | IC50 (A-431) | IC50 (MDCK) | IC50 (HepG2)
126%: viability at 48 h, 30 µM [38] | viability at 48 h, 30 µM [41]
0.125 µM: MIC (Mycobacterium kansasii [44])
110%: viability at 48 h, 30 µM [40]
0.03 µM: MIC [2] | MIC (Mycobacterium kansasii [5]) | MIC (Mycobacterium kansasii [45]) | MIC (Mycobacterium kansasii [46]) | MIC (Mycobacterium kansasii [47])
100%: viability at 48 h, 30 µM [39]
0.06 µM: MIC (Mycobacterium kansasii [4]) | MIC [43]
> 500 µM: MIC (Staphylococcus aureus [22]) | MIC (Staphylococcus aureus [23]) | MIC (Staphylococcus aureus [24]) | MIC (Staphylococcus aureus [25]) | MIC [26] | MIC [27] | MIC (Enterococcus sp. [28]) | MIC (Enterococcus sp. [29]) | MIC (Escherichia coli [30]) | MIC (Escherichia coli [31]) | MIC (Klebsiella pneumoniae [32]) | MIC (Klebsiella pneumoniae [33]) | MIC (Klebsiella pneumoniae [34]) | MIC (Klebsiella pneumoniae [35]) | MIC (Pseudomonas aeruginosa [36]) | MIC (Pseudomonas aeruginosa [37])
> 1000: selectivity ratio [42]
